Measured values reported in paper PMC5823406, “Vehicle development, pharmacokinetics and toxicity of the anti-invasive agent 4-fluoro-3’,4’,5’-trimethoxychalcone in rodents” (PLoS ONE, 2018).
Entries after “also recorded” stand apart in the source; their conditions may differ.

Legend:
ICR mice [1] = assay: Single-dose IP MTD study; type: in vivo; details: for Necropsy: gross findings: 24 h post dosing; for Weigt decrease (%): over 24 h
Description: (§1) Male ICR mice (20–26 g), were obtained from BioLASCO Taiwan. Animals were kept in conventional cages with wood chip bedding. Space allocation for 3–5 animals was 30 x 19 x 13 cm. All animals were healthy at the start of the trial and maintained in a well-controlled temperature (20–24°C) and humidity (30%-70%) environment with 12 h light/dark cycles. Free access to a standard lab diet [MFG (Oriental Yeast Co., Ltd., Japan)] and autoclaved tap water were granted.
(§2) A single PO and IP dose progression test was conducted in which animals were dosed at a minimum of 72- or 24-h intervals, respectively. C16 (vehicle: 10% Solutol HS-15 / 90% PEG 600) was administered by oral gavage at 10 mL/kg to randomly assigned groups of 2 male and 2 female mice, or by IP injection at 5 mL/kg to randomly assigned groups of 5 male mice. Animals received an initial dose of 10 mg/kg. If 50% of the animals survived for 72 h (PO) or 30 min (IP), the dose for the next cohort was increased. If one or more animals died, the dose for the next cohort was decreased. The next dose level was determined by the decision scheme in Fig 2.
(§3) Body weights were recorded before dosing and at the 72- (PO) or 24-h (IP) time point. Gross necropsy was performed in all animals without tissue collection.
C16 was administered IP at an initial dose of 10 mg/kg to a group of 5 ICR derived male mice weighing 22±2 g. The animals were then observed for presence of acute toxic symptoms and autonomic effects during the first 30 min and after 1 h, 2 h, 6 h and 24 h (Table S-Table U). The next dose level was determined based on whether more than 50% animals died within 30 min after dosing. Gross necropsy was performed in all animals without tissue collection .
Table S. Body weights, evolution over 24 h, IP MTD study.
Compound Dose Animal Body weight (g)
Table T. Food consumption over 24 h, IP MTD study.
Compound Dose Animal Food consumption (g)

ICR mice [2] = assay: Single-dose PO MTD study; type: in vivo; details: for Necropsy: gross findings: 72 h post dosing; for Autonomic / Behavioral / Neurologic: first 60 min; for Weigt increase (%): over 72 h, average±SD
Description: as §1, §2, §3
dose was increased or decreased in each subsequent test round until the MTD was discovered. Gross necropsy was
performed in all animals without tissue collection.

[3] = Metabolite profiling in whole blood; type: in vitro ADME; details: rat whole blood
Description: C. Stability and metabolism
For details on ADME experiments not included underneath , please consult ref. [1].
C.A. Whole blood stability
Column: Kinetex XB-C18 column, 2.6 µm (150 x2.1 mm)
Mobile phase A: H2O + 0.1% v/v Formic Acid
Mobile phase B: MeCN + 0.1% v/v Formic Acid
Autosampler syringe volume: 100 µL
Weak wash: MeOH:H2O 1:9 v/v
Strong wash: MeOH:H2O 95:5 v/v
Table K. Gradient program.
Mass spectrometric conditions
Model: AB Sciex API5500 QTrap
Mode: Multiple ion monitoring (MIM)
Table L. MIM (parent to parent transitions).
The areas and percentages for the parent and metabolites have been calculated using MIM data where parent to parent transitions have been used, and assume that each metabolite has the same point of ionisation and the sensitivity of the metabolite has not been affected by the biotransformation.

[4] = Protein binding and recovery; type: in vitro ADME; details: Human plasma
[5] = Solubility in vehicles, visual determination; type: physicochemical
Description: C16 has low aqueous solubility, which limits the choice of preclinical formulations for in vivo studies. In this work, thirteen vehicles were evaluated for their applicability in single-dose studies (Table 1). For commonly used systems (entries a-e) visual determination of solubility was conducted, while for the more complex systems solubility was assessed by laser nephelometry.

Aqueous solubility = type: physicochemical; details: test concentration 200 μM
Source text: Table 3 In vitro physicochemical, stability and metabolism data. | column: Value

SK-OV-3 = system: SK-OV-3; design: method as in PMID 26204510; details: read-out: IC50 in Matrigel invasion assay (SK-OV-3); cited from earlier work

For `COc1cc(C(=O)/C=C/c2ccc(F)cc2)cc(OC)c1OC` [C16, 4-fluoro-3’,4’,5’-trimethoxychalcone], the Deaths (ICR mice [1]; IP 10 mg/kg) was 0/5, the “Necropsy: gross findings” value (ICR mice [1]; IP 10 mg/kg) was “none” and the “Autonomic: Hunch back” value (ICR mice [1]; IP 10 mg/kg, first 30 min) was 3/5. For the same compound, the “Autonomic: Low body temperature” value (ICR mice [1]; IP 10 mg/kg, first 30 min) was 0/5, the “Behavioral: Irritability: vocalization” value (ICR mice [1]; IP 10 mg/kg, first 30 min) was 0/5 and the “Behavioral: Pinna” value (ICR mice [1]; IP 10 mg/kg, first 30 min) was 0/5. For the same compound, the “Neurologic: Low limb post” value (ICR mice [1]; IP 10 mg/kg, first 30 min) was 0/5, the “Neurologic: Tremor: twitches” value (ICR mice [1]; IP 10 mg/kg, first 30 min) was 2/5 and the “Weigt decrease (%)” value (ICR mice [1]; IP 10 mg/kg) was 2.4%. For the same compound, the Deaths (ICR mice [1]; IP 30 mg/kg) was 0/5, the “Necropsy: gross findings” value (ICR mice [1]; IP 30 mg/kg) was “none” and the “Autonomic: Hunch back” value (ICR mice [1]; IP 30 mg/kg, first 30 min) was 5/5. The “Autonomic: Low body temperature” value (ICR mice [1]; IP 30 mg/kg, first 30 min) was 0/5, the “Neurologic: Tremor: twitches” value (ICR mice [1]; IP 30 mg/kg, first 30 min) was 2/5 and the “Weigt decrease (%)” value (ICR mice [1]; IP 30 mg/kg) was 4.8%. For the same compound, the Deaths (ICR mice [1]; IP 50 mg/kg) was 0/5, the “Necropsy: gross findings” value (ICR mice [1]; IP 50 mg/kg) was “none” and the “Autonomic: Hunch back” value (ICR mice [1]; IP 50 mg/kg, first 30 min) was 5/5. For the same compound, the “Neurologic: Tremor: twitches” value (ICR mice [1]; IP 50 mg/kg, first 30 min) was 3/5, the “Weigt decrease (%)” value (ICR mice [1]; IP 50 mg/kg) was 8.7% and the “tolerated dose, single-dose IP administration” value (ICR mice [1]; male, ICR, mouse, in vivo, ip, 24 h) was “up to 50 mg/kg”. For the same compound, the tolerated dose (ICR mice [2]; ICR mice, PO oral gavage, single dose) was 10 to 300 mg/kg, the Deaths (ICR mice [2]; PO 10 mg/kg, F) was 0/2 and the “Necropsy: gross findings” value (ICR mice [2]; PO 10 mg/kg, F) was “none”. For the same compound, the Autonomic (ICR mice [2]; PO 10 mg/kg, F) was “none”, the Behavioral (ICR mice [2]; PO 10 mg/kg, F) was “none” and the Neurologic (ICR mice [2]; PO 10 mg/kg, F) was “none”. The “Weigt increase (%)” value (ICR mice [2]; PO 10 mg/kg, F) was 2±3%, the Deaths (ICR mice [2]; PO 10 mg/kg, M) was 0/2 and the “Necropsy: gross findings” value (ICR mice [2]; PO 10 mg/kg, M) was “none”. For the same compound, the Autonomic (ICR mice [2]; PO 10 mg/kg, M) was “none”, the Behavioral (ICR mice [2]; PO 10 mg/kg, M) was “none” and the Neurologic (ICR mice [2]; PO 10 mg/kg, M) was “none”. For the same compound, the “Weigt increase (%)” value (ICR mice [2]; PO 10 mg/kg, M) was 25±3%, the Deaths (ICR mice [2]; PO 30 mg/kg, F) was 0/2 and the “Necropsy: gross findings” value (ICR mice [2]; PO 30 mg/kg, F) was “none”. The Autonomic (ICR mice [2]; PO 30 mg/kg, F) was “none”, the Behavioral (ICR mice [2]; PO 30 mg/kg, F) was “none” and the Neurologic (ICR mice [2]; PO 30 mg/kg, F) was “none”. The “Weigt increase (%)” value (ICR mice [2]; PO 30 mg/kg, F) was 6±3%, the Deaths (ICR mice [2]; PO 30 mg/kg, M) was 0/2 and the “Necropsy: gross findings” value (ICR mice [2]; PO 30 mg/kg, M) was “none”. For the same compound, the Autonomic (ICR mice [2]; PO 30 mg/kg, M) was “none”, the Behavioral (ICR mice [2]; PO 30 mg/kg, M) was “none” and the Neurologic (ICR mice [2]; PO 30 mg/kg, M) was “none”. For the same compound, the “Weigt increase (%)” value (ICR mice [2]; PO 30 mg/kg, M) was 18±3%, the Deaths (ICR mice [2]; PO 100 mg/kg, F) was 0/2 and the “Necropsy: gross findings” value (ICR mice [2]; PO 100 mg/kg, F) was “none”. For the same compound, the Autonomic (ICR mice [2]; PO 100 mg/kg, F) was “none”, the Behavioral (ICR mice [2]; PO 100 mg/kg, F) was “Yes: B,C” and the Neurologic (ICR mice [2]; PO 100 mg/kg, F) was “none”. The “Weigt increase (%)” value (ICR mice [2]; PO 100 mg/kg, F) was 8±1%, the Deaths (ICR mice [2]; PO 100 mg/kg, M) was 0/2 and the “Necropsy: gross findings” value (ICR mice [2]; PO 100 mg/kg, M) was “none”. The Autonomic (ICR mice [2]; PO 100 mg/kg, M) was “none”, the Behavioral (ICR mice [2]; PO 100 mg/kg, M) was “Yes: A,C” and the Neurologic (ICR mice [2]; PO 100 mg/kg, M) was “none”. The “Weigt increase (%)” value (ICR mice [2]; PO 100 mg/kg, M) was 25±1%, the Deaths (ICR mice [2]; PO 300 mg/kg, F) was 0/2 and the “Necropsy: gross findings” value (ICR mice [2]; PO 300 mg/kg, F) was “none”. For the same compound, the Autonomic (ICR mice [2]; PO 300 mg/kg, F) was “none”, the Behavioral (ICR mice [2]; PO 300 mg/kg, F) was “Yes: A” and the Neurologic (ICR mice [2]; PO 300 mg/kg, F) was “none”. For the same compound, the “Weigt increase (%)” value (ICR mice [2]; PO 300 mg/kg, F) was 7±3%, the Deaths (ICR mice [2]; PO 300 mg/kg, M) was 0/2 and the “Necropsy: gross findings” value (ICR mice [2]; PO 300 mg/kg, M) was “none”. For the same compound, the Autonomic (ICR mice [2]; PO 300 mg/kg, M) was “none”, the Behavioral (ICR mice [2]; PO 300 mg/kg, M) was “Yes: A” and the Neurologic (ICR mice [2]; PO 300 mg/kg, M) was “none”. The “Weigt increase (%)” value (ICR mice [2]; PO 300 mg/kg, M) was 17±0%, the “maximum tolerated single dose” value (ICR mice [2]; mouse, oral gavage) was over 300 mg/kg and the “Area in sample (%)” value ([3]; 0 min control) was 62.4%. The “Area in sample (%)” value ([3]; 15 min sample) was 52.2%, the fraction unbound at 100 μM [4] was 0.01 and the recovery at 100 μM [4] was 90%. For the same compound, the “Solubility of C16 in vehicle: Result” value ([5]; 10% (DMSO / Cremophor EL 1:1) / 90% Milli-Q water, 2 mg/mL) was “Insoluble ^a”, the “Solubility of C16 in vehicle: Result” value ([5]; 10% DMSO in normal saline, 1 mg/mL) was “Insoluble ^a” and the “Solubility of C16 in vehicle: Result” value ([5]; 20% DMSO / 10% (DMSO / Cremophor EL 1:1) / 70% Milli-Q water, 2 mg/mL) was “Soluble ^a”. For the same compound, the “Solubility of C16 in vehicle: Result” value ([5]; 50% DMSO in normal saline, 1 mg/mL) was “Insoluble ^a”, the “Solubility of C16 in vehicle: Result” value ([5]; DMSO, 10 mg/mL) was “highly soluble; also recorded: Soluble ^a” and the Aqueous solubility (Aqueous solubility; PBS, pH 7.4) was 7.9 µM. For the same compound, the Aqueous solubility (Aqueous solubility; simulated gastric fluid) was 9.1 µM, the Aqueous solubility (Aqueous solubility; simulated intestinal fluid) was 2.4 µM and the IC50 (SK-OV-3) was under 100 nM.
